Test results from US20180133221A1, “ADMINISTRATION OF UBIQUITIN-ACTIVATING ENZYME INHIBITOR AND CHEMOTHERAPEUTIC AGENTS” (Millennium Pharmaceuticals, Inc., priority 2014, published 2018).
Where two headings read alike, the source gives them in different places.

Legend:
[1] = system: Calu-6 non-small cell lung cancer xenograft; assay: Calu-6 xenograft model, Compound 1 and docetaxel; assay type: in vivo, nude mice; details: for Tumor Volume Day 21: in mm³ (unit assumed)
Procedure: Calu-6 is a non-small cell lung cancer cell-lined derived xenograft model. Nine week old female nude mice (Taconic Farms, Inc) were inoculated subcutaneously in the flank (cell suspension) with 4.0×10^6 Calu-6 cells suspended in serum free MEM. […] Docetaxel (Henry Schein, Inc., Pittsburgh Pa.) is formulated in 0.9% saline and administered by intravenous injection (IV) once weekly (QW) at 5 mg/kg or 10 mg/kg. […] Tumors were measured twice weekly using vernier calipers.

[2] = system: PHTX-02B breast xenograft; assay: PHTX-02B xenograft model, Compound 1 and docetaxel; assay type: in vivo, SCID-NOD mice; details: for Tumor Volume Day 21: in mm³ (unit assumed)
Procedure: (§1) Docetaxel (Henry Schein, Inc., Pittsburgh Pa.) is formulated in 0.9% saline and administered by intravenous injection (IV) once weekly (QW) at 5 mg/kg or 10 mg/kg. […] Tumors were measured twice weekly using vernier calipers.

[3] = system: PHTX-14B breast xenograft; assay: PHTX-14B xenograft model, Compound 1 and docetaxel; assay type: in vivo, nude mice; details: for Tumor Volume Day 28: in mm³ (unit assumed)
Procedure: as §1

[4] = system: CTG-0159 human lung NSCLC xenograft; assay: CTG-0159 xenograft model, Compound 1 and docetaxel; assay type: in vivo, Mus musculus/nu/nu mice; details: for Tumor Volume Day 21: in mm³ (unit assumed)
Procedure: as §1

[5] = system: CTG-0486 human ovarian xenograft; assay type: in vivo; details: for Tumor Volume Day 21: in mm³ (unit assumed)
From the text: The CTG-0486 model of human ovarian xenograft model was established from a patient-derived tumor collected during surgery from a person with ovarian cancer (serous adenocarcinoma, metastases to the small bowel). CTG-0486 tumor fragments (approximately 2×2×3 mm^3) are implanted into the subcutaneous space in the right dorsal flank of female Mus musculus/nu/nu mice (age 6-9 weeks, Harlan Laboratories, Madison, Wis., USA) using a 13-gauge trocar needle. When the mean tumor volume reached approximately 260 mm3, the animals were randomized into 8 treatment groups (n=5/group).
[…] The once weekly schedule is also described as every 7 days (Q7D).
(§2) Compound 1 [((1R,2R,3S,4R)-2,3-dihydroxy-4-(2-(3-(trifluoromethylthio)-phenyl)pyrazolo[1,5-a]pyrimidin-7-ylamino)cyclopentyl)methyl sulfamate] is formulated in 10-20% HPbCD in sterile water and administered intravenously (IV) or subcutaneously (SC) on a BIW (twice/week schedule; Monday and Thursday or Tuesday and Friday) for either 2-4 weeks.
(§3) Tumors were measured twice weekly using vernier calipers. Tumor volumes were calculated using the standard formula V=W^2×L/2,). When mean tumor volumes reached approximately 200 mm^3 for PHTX-24C, 220 mm^3 for PHTX-Lu132, 150 mm^3 for CTG-0256, 260 mm^3 for CTG-0486, 185 mm^3 for PHTX-17C, 260 mm^3 for CTG-0165, 150 mm^3 for PHTX-14B in the study of Compound 1 and paclitaxel, 180 mm^3 for PHTX-14B in the study of Compound 1 and docetaxel, 200 mm^3 for SKOV-3, 220 mm^3 for PHTX-02B in the study of Compound 1 and docetaxel, 250 mm^3 for PHTX-02B in the study of Compound 1 and paclitaxel, 195 mm^3 for CTG-0159, 180 mm^3 for CTG-0012 or 150 mm^3 for Calu-6, mice were randomized into groups of n=5-7/arm as described in the tables below, and injected with vehicle, Compound 1 or agents (docetaxel, paclitaxel, oxaliplatin, cisplatin or carboplatin), or the combination of Compound 1 plus one of the agents, at various doses and schedules as described in tables below. Tumor size and body weight were measured approximately twice a week for the duration of the study. Mice are euthanized when their tumor volume reached 10% of their body weight, or when the average tumor volume of a treatment or control group reached approximately 2000 mm^3. Tumor growth continued to be monitored after the dosing period in some studies. Average tumor volume is reported as a function of time for selected arms of selected studies in the Figures.
(§4) Measurements from day 0 to day 14, day 19, day 21, or day 28 are analyzed as specified in Tables below. All tumor volumes have a value of 1 added to them before log10 transformation. For each animal, the log tumor volume at day 0 is subtracted from the log tumor volume on the subsequent days. This difference vs. time is used to calculate an area under the curve (AUC) for each animal using the trapezoid rule. […] The synergy score for the combination of agents A and B is defined as
(§5) 100*(mean(AUCAB)−mean(AUCA)−mean(AUCB)+mean(AUCctl))/mean(AUCctl):
(§6) where AUCAB, AUCA, AUCB, and AUCctl are the AUC values for animals in the combination group, the A group, the B group, and the control group, respectively. The standard error of the synergy score is computed based on the variation in the AUC values among the animals. […] If the P-value is above 0.05, then the combination is considered to be additive. If the P-value is below 0.05, and the synergy score is less than zero, then the combination is considered to be synergistic.

[6] = system: PHTX-132Lu non-small cell lung xenograft; details: for Tumor Volume Day 21: in mm³ (unit assumed)
From the text: The PHTX-132Lu non-small cell lung xenograft model was established from a patient-derived tumor collected during surgery from a person with lung cancer (Poorly Differentiated Adenocarcinoma). PHTX-132Lu tumor fragments (approximately 2×2×3 mm^3) are implanted into the subcutaneous space in the right dorsal flank of female CB-17 SCID mice (age 10 weeks, Charles River Laboratory, Wilmington, Mass.) using a 13-gauge trocar. When the mean tumor volume reached approximately 220 mm^3, the animals were randomized into 12 treatment groups (n=5/group).
Carboplatin (Teva Pharmaceuticals) is formulated in 0.9% saline and administered by IP injection once weekly (QW) at 25, 50, 60, and 75 mg/kg. The once weekly schedule is also described as every 7 days (Q7D).
as §2, §3, §4, §5, §6

## NS(=O)(=O)OC[C@H]1C[C@@H](Nc2ccnc3cc(-c4cccc(SC(F)(F)F)c4)nn23)[C@H](O)[C@@H]1O [Compound 1, ((1R,2R,3S,4R)-2,3-dihydroxy-4-(2-(3-(trifluoromethylthio)phenyl)pyrazolo[1,5-a]pyrimidin-7-ylamino)cyclopentyl)methyl sulfamate]
[1]; 5 mg/kg Compound 1 BIWx3 IV
  Tumor Volume Day 21: 1302.2
[1]; 10 mg/kg Compound 1 BIWx3 IV
  Tumor Volume Day 21: 1346.4
[1]; 15 mg/kg Compound 1 BIWx3 IV
  Tumor Volume Day 21: 1072.4
[1]; single agent Compound 1 IV at 5, 10 and 20 mg/kg IV BIW
  anti-tumor responses compared to the vehicle control: modest anti-tumor responses
[2]; 7.5 mg/kg Compound 1 BIWx3 SC
  Tumor Volume Day 21: 596.5
[2]; 15 mg/kg Compound 1 BIWx3 SC
  Tumor Volume Day 21: 324.8
[2]; 20 mg/kg Compound 1 BIWx3 IV
  Tumor Volume Day 21: 178.8
[2]; 20 mg/kg Compound 1 BIWx3 SC
  Tumor Volume Day 21: 185
[2]; single agent Compound 1 SC at 7.5, 15 and 20 mg/kg BIW, IV also 20 mg/kg BIW
  tumor growth compared to the vehicle control group: inhibited tumor growth
[3]; 10 mg/kg Compound 1 BIWx3 SC
  Tumor Volume Day 28: 499.4
[3]; 20 mg/kg Compound 1 BIWx3 SC
  Tumor Volume Day 28: 399.4
[3]; single agent Compound 1 SC at 20 and 10 mg/kg BIW
  tumor growth compared to the vehicle control group: inhibited tumor growth
[4]; 6.25 mg/kg Compound 1 BIWx3 IV
  Tumor Volume Day 21: 1618.9
[4]; 15 mg/kg Compound 1 BIWx3 IV
  Tumor Volume Day 21: 2373.2
[4]; 20 mg/kg Compound 1 BIWx3 IV
  Tumor Volume Day 21: 1376.2
[4]; Compound 1 alone at 20, 15, and 6.25 mg/kg IV BIW
  tumor growth: did not inhibit tumor growth
[5]; 6.25 mg/kg Compound 1 BIWx3 SC
  Tumor Volume Day 21: 476.9
[5]; 15 mg/kg Compound 1 BIWx3 SC
  Tumor Volume Day 21: 131.9
[5]; 20 mg/kg Compound 1 BIWx3 SC
  Tumor Volume Day 21: 92.7
[5]; 25 mg/kg Compound 1 BIWx3 SC
  Tumor Volume Day 21: 151.7
[5]; 20 and 25 mg/kg doses of Compound 1, SC BIW
  tolerability: not tolerated
[5]; single agent Compound 1 SC at 6.25, 15, 20 and 25 mg/kg BIW for 3 weeks
  anti-tumor activity compared to vehicle control: modest to strong anti-tumor activity
[6]; 5 mg/kg Compound 1 BIWx3 IV
  Tumor Volume Day 21: 882.7
[6]; 10 mg/kg Compound 1 BIWx3 IV
  Tumor Volume Day 21: 653.5
[6]; 15 mg/kg Compound 1 BIWx3 IV
  Tumor Volume Day 21: 483.7
[6]; single agent Compound 1 IV at 5, 10 and 15 mg/kg BIW
  anti-tumor activity compared to vehicle control: modest anti-tumor activity
